Laboratory results as given in ChEMBL document CHEMBL1255442, “Assay of colistin and colistin methanesulfonate in plasma and urine by liquid chromatography-tandem mass spectrometry” (Antimicrob Agents Chemother, 2010).

Experiments:
Format in all cases: ADME, organism-based
Plasma [1] = assay: Stability of the compound in healthy human spiked plasma assessed as initial Colistin methanesulfonate A at 80 mg, iv administered for 60 mins measured post 2 months of incubation at -20 degC by LC-MS/MS assay; conditions: in vivo, 1 h, pooled result: one value given for 9 cell lines, strains, targets or settings
Plasma [2] = assay: Stability of the compound in healthy human spiked plasma assessed as initial Colistin methanesulfonate A at 80 mg, iv administered for 60 mins measured under acidic pretreatment by LC-MS/MS assay; conditions: in vivo, 1 h
Plasma [3] = assay: Stability of the compound in healthy human spiked plasma assessed as initial Colistin methanesulfonate A at 80 mg, iv administered for 60 mins measured after 2 freeze-thaw cycles by LC-MS/MS assay; conditions: in vivo, 1 h
Plasma [4] = assay: Stability of the compound in healthy human spiked plasma assessed as initial Colistin methanesulfonate B at 80 mg, iv administered for 60 mins measured post 2 months of incubation at -20 degC by LC-MS/MS assay; conditions: in vivo, 1 h, pooled result: one value given for 9 cell lines, strains, targets or settings
Plasma [5] = assay: Stability of the compound in healthy human spiked plasma assessed as initial Colistin methanesulfonate B at 80 mg, iv administered for 60 mins measured under acidic pretreatment by LC-MS/MS assay; conditions: in vivo, 1 h
Plasma [6] = assay: Stability of the compound in healthy human spiked plasma assessed as initial Colistin methanesulfonate B at 80 mg, iv administered for 60 mins measured after 2 freeze-thaw cycles by LC-MS/MS assay; conditions: in vivo, 1 h
Plasma [7] = assay: Stability of the compound in healthy human spiked plasma assessed as Colistin methanesulfonate A at 80 mg, iv administered for 60 mins measured post 2 months of incubation at -20 degC by LC-MS/MS assay; conditions: in vivo, 1 h
Plasma [8] = assay: Stability of the compound in healthy human spiked plasma assessed as Colistin methanesulfonate A at 80 mg, iv administered for 60 mins measured under nonacidic pretreatment by LC-MS/MS assay; conditions: in vivo, 1 h
Plasma [9] = assay: Stability of the compound in healthy human spiked plasma assessed as Colistin methanesulfonate A at 80 mg, iv administered for 60 mins measured under acidic pretreatment by LC-MS/MS assay; conditions: in vivo, 1 h
Plasma [10] = assay: Stability of the compound in healthy human spiked plasma assessed as Colistin methanesulfonate A at 80 mg, iv administered for 60 mins measured after 2 freeze-thaw cycles by LC-MS/MS assay; conditions: in vivo, 1 h
Plasma [11] = assay: Stability of the compound in healthy human spiked plasma assessed as Colistin methanesulfonate A at 80 mg, iv administered for 60 mins measured after 1 hr in room temperature by LC-MS/MS assay; conditions: in vivo
Plasma [12] = assay: Stability of the compound in healthy human spiked plasma assessed as Colistin methanesulfonate A at 80 mg, iv administered for 60 mins measured after 4 hrs in room temperature by LC-MS/MS assay; conditions: in vivo
Plasma [13] = assay: Stability of the compound in healthy human spiked plasma assessed as Colistin methanesulfonate A at 80 mg, iv administered for 60 mins measured after 5 hrs at 4 degC by LC-MS/MS assay; conditions: in vivo
[14] = Stability of the compound in healthy human spiked urine assessed as Colistin methanesulfonate A at 80 mg, iv administered for 60 mins measured after 2 freeze-thaw cycles by LC-MS/MS assay; conditions: in vivo, 1 h
[15] = Stability of the compound in healthy human spiked urine assessed as Colistin methanesulfonate A at 80 mg, iv administered for 60 mins measured at room temperature by LC-MS/MS assay; conditions: in vivo, 1 h
[16] = Stability of the compound in healthy human spiked urine assessed as Colistin methanesulfonate A at 80 mg, iv administered for 60 mins measured after 1 hr in room temperature by LC-MS/MS assay; conditions: in vivo
[17] = Stability of the compound in healthy human spiked urine assessed as Colistin methanesulfonate A at 80 mg, iv administered for 60 mins measured after 4 hrs in room temperature by LC-MS/MS assay; conditions: in vivo
Plasma [18] = assay: Stability of the compound in healthy human spiked plasma assessed as Colistin methanesulfonate B at 80 mg, iv administered for 60 mins measured post 2 months of incubation at -20 degC by LC-MS/MS assay; conditions: in vivo, 1 h
Plasma [19] = assay: Stability of the compound in healthy human spiked plasma assessed as Colistin methanesulfonate B at 80 mg, iv administered for 60 mins measured under nonacidic pretreatment by LC-MS/MS assay; conditions: in vivo, 1 h
Plasma [20] = assay: Stability of the compound in healthy human spiked plasma assessed as Colistin methanesulfonate B at 80 mg, iv administered for 60 mins measured under acidic pretreatment by LC-MS/MS assay; conditions: in vivo, 1 h
Plasma [21] = assay: Stability of the compound in healthy human spiked plasma assessed as Colistin methanesulfonate B at 80 mg, iv administered for 60 mins measured after 2 freeze-thaw cycles by LC-MS/MS assay; conditions: in vivo, 1 h
Plasma [22] = assay: Stability of the compound in healthy human spiked plasma assessed as Colistin methanesulfonate B at 80 mg, iv administered for 60 mins measured after 1 hr in room temperature by LC-MS/MS assay; conditions: in vivo
Plasma [23] = assay: Stability of the compound in healthy human spiked plasma assessed as Colistin methanesulfonate B at 80 mg, iv administered for 60 mins measured after 4 hrs in room temperature by LC-MS/MS assay; conditions: in vivo
Plasma [24] = assay: Stability of the compound in healthy human spiked plasma assessed as Colistin methanesulfonate B at 80 mg, iv administered for 60 mins measured after 5 hrs at 4 degC by LC-MS/MS assay; conditions: in vivo
[25] = Stability of the compound in healthy human spiked urine assessed as Colistin methanesulfonate B at 80 mg, iv administered for 60 mins measured after 2 freeze-thaw cycles by LC-MS/MS assay; conditions: in vivo, 1 h
[26] = Stability of the compound in healthy human spiked urine assessed as Colistin methanesulfonate B at 80 mg, iv administered for 60 mins measured at room temperature by LC-MS/MS assay; conditions: in vivo, 1 h
[27] = Stability of the compound in healthy human spiked urine assessed as Colistin methanesulfonate B at 80 mg, iv administered for 60 mins measured after 1 hr in room temperature by LC-MS/MS assay; conditions: in vivo
[28] = Stability of the compound in healthy human spiked urine assessed as Colistin methanesulfonate B at 80 mg, iv administered for 60 mins measured after 4 hrs in room temperature by LC-MS/MS assay; conditions: in vivo
Plasma [29] = assay: Stability of the compound in healthy human spiked plasma assessed as Colistin methanesulfonate A degradation at 80 mg, iv administered for 60 mins measured post 2 months of incubation at -20 degC by LC-MS/MS assay; conditions: in vivo, 1 h
Plasma [30] = assay: Stability of the compound in healthy human spiked plasma assessed as Colistin methanesulfonate A degradation at 80 mg, iv administered for 60 mins measured under nonacidic pretreatment by LC-MS/MS assay; conditions: in vivo, 1 h
Plasma [31] = assay: Stability of the compound in healthy human spiked plasma assessed as Colistin methanesulfonate A degradation at 80 mg, iv administered for 60 mins measured under acidic pretreatment by LC-MS/MS assay; conditions: in vivo, 1 h
Plasma [32] = assay: Stability of the compound in healthy human spiked plasma assessed as Colistin methanesulfonate A degradation at 80 mg, iv administered for 60 mins measured after 2 freeze-thaw cycles by LC-MS/MS assay; conditions: in vivo, 1 h
Plasma [33] = assay: Stability of the compound in healthy human spiked plasma assessed as Colistin methanesulfonate A degradation at 80 mg, iv administered for 60 mins measured after 1 hr in room temperature by LC-MS/MS assay; conditions: in vivo
Plasma [34] = assay: Stability of the compound in healthy human spiked plasma assessed as Colistin methanesulfonate A degradation at 80 mg, iv administered for 60 mins measured after 4 hrs in room temperature by LC-MS/MS assay; conditions: in vivo
Plasma [35] = assay: Stability of the compound in healthy human spiked plasma assessed as Colistin methanesulfonate A degradation at 80 mg, iv administered for 60 mins measured after 5 hrs at 4 degC by LC-MS/MS assay; conditions: in vivo
[36] = Stability of the compound in healthy human spiked urine assessed as Colistin methanesulfonate A degradation at 80 mg, iv administered for 60 mins measured after 2 freeze-thaw cycles by LC-MS/MS assay; conditions: in vivo, 1 h
[37] = Stability of the compound in healthy human spiked urine assessed as Colistin methanesulfonate A degradation at 80 mg, iv administered for 60 mins measured at room temperature by LC-MS/MS assay; conditions: in vivo, 1 h
[38] = Stability of the compound in healthy human spiked urine assessed as Colistin methanesulfonate A degradation at 80 mg, iv administered for 60 mins measured after 1 hr in room temperature by LC-MS/MS assay; conditions: in vivo
[39] = Stability of the compound in healthy human spiked urine assessed as Colistin methanesulfonate A degradation at 80 mg, iv administered for 60 mins measured after 4 hrs in room temperature by LC-MS/MS assay; conditions: in vivo
Plasma [40] = assay: Stability of the compound in healthy human spiked plasma assessed as Colistin methanesulfonate B degradation at 80 mg, iv administered for 60 mins measured post 2 months of incubation at -20 degC by LC-MS/MS assay; conditions: in vivo, 1 h
Plasma [41] = assay: Stability of the compound in healthy human spiked plasma assessed as Colistin methanesulfonate B degradation at 80 mg, iv administered for 60 mins measured under nonacidic pretreatment by LC-MS/MS assay; conditions: in vivo, 1 h
Plasma [42] = assay: Stability of the compound in healthy human spiked plasma assessed as Colistin methanesulfonate B degradation at 80 mg, iv administered for 60 mins measured under acidic pretreatment by LC-MS/MS assay; conditions: in vivo, 1 h
Plasma [43] = assay: Stability of the compound in healthy human spiked plasma assessed as Colistin methanesulfonate B degradation at 80 mg, iv administered for 60 mins measured after 2 freeze-thaw cycles by LC-MS/MS assay; conditions: in vivo, 1 h
Plasma [44] = assay: Stability of the compound in healthy human spiked plasma assessed as Colistin methanesulfonate B degradation at 80 mg, iv administered for 60 mins measured after 1 hr in room temperature by LC-MS/MS assay; conditions: in vivo
Plasma [45] = assay: Stability of the compound in healthy human spiked plasma assessed as Colistin methanesulfonate B degradation at 80 mg, iv administered for 60 mins measured after 4 hrs in room temperature by LC-MS/MS assay; conditions: in vivo
Plasma [46] = assay: Stability of the compound in healthy human spiked plasma assessed as Colistin methanesulfonate B degradation at 80 mg, iv administered for 60 mins measured after 5 hrs at 4 degC by LC-MS/MS assay; conditions: in vivo
[47] = Stability of the compound in healthy human spiked urine assessed as Colistin methanesulfonate B degradation at 80 mg, iv administered for 60 mins measured after 2 freeze-thaw cycles by LC-MS/MS assay; conditions: in vivo, 1 h
[48] = Stability of the compound in healthy human spiked urine assessed as Colistin methanesulfonate B degradation at 80 mg, iv administered for 60 mins measured at room temperature by LC-MS/MS assay; conditions: in vivo, 1 h
[49] = Stability of the compound in healthy human spiked urine assessed as Colistin methanesulfonate B degradation at 80 mg, iv administered for 60 mins measured after 1 hr in room temperature by LC-MS/MS assay; conditions: in vivo
[50] = Stability of the compound in healthy human spiked urine assessed as Colistin methanesulfonate B degradation at 80 mg, iv administered for 60 mins measured after 4 hrs in room temperature by LC-MS/MS assay; conditions: in vivo

For COLISTIMETHATE SODIUM, the Stability (Plasma [1]) was 3.746 µg/mL, the Stability (Plasma [2]) was 7.492 µg/mL and the Stability (Plasma [3]) was 0.937 µg/mL. It also gave a Stability (Plasma [4]) of 1.254 µg/mL, a Stability (Plasma [5]) of 2.508 µg/mL and a Stability (Plasma [6]) of 0.313 µg/mL. The Stability (Plasma [7]) was “Unstable”, the Stability (Plasma [8]) was “Unstable” and the Stability (Plasma [9]) was 1.626 µg/mL. The Stability (Plasma [10]) was “Unstable”, the Stability (Plasma [11]) was 0.123 µg/mL and the Stability (Plasma [12]) was 0.519 µg/mL. For the same sequence, the Stability (Plasma [13]) was “Unstable”, the Stability [14] was 0.746 µg/mL and the Stability [15] was 0.614 µg/mL. The Stability [16] was 0.835 µg/mL, the Stability [17] was 1.056 µg/mL and the Stability (Plasma [18]) was “Unstable”. For the same sequence, the Stability (Plasma [19]) was “Unstable”, the Stability (Plasma [20]) was 0.485 µg/mL and the Stability (Plasma [21]) was “Unstable”. For the same sequence, the Stability (Plasma [22]) was 0.029 µg/mL, the Stability (Plasma [23]) was 0.175 µg/mL and the Stability (Plasma [24]) was “Unstable”. It also gave a Stability [25] of 0.18 µg/mL, a Stability [26] of 0.143 µg/mL and a Stability [27] of 0.211 µg/mL. For the same sequence, the Stability [28] was 0.268 µg/mL, the Stability (Plasma [29]) was “Stable” and the Stability (Plasma [30]) was “Stable”. For the same sequence, the Stability (Plasma [31]) was 32.5%, the Stability (Plasma [32]) was “Stable” and the Stability (Plasma [33]) was 3.3%. The Stability (Plasma [34]) was 13.9%, the Stability (Plasma [35]) was “Stable” and the Stability [36] was 19.9%. For the same sequence, the Stability [37] was 16.4%, the Stability [38] was 22.3% and the Stability [39] was 29.2%. The Stability (Plasma [40]) was “Stable”, the Stability (Plasma [41]) was “Stable” and the Stability (Plasma [42]) was 29.1%. The Stability (Plasma [43]) was “Stable”, the Stability (Plasma [44]) was 2.3% and the Stability (Plasma [45]) was 14%. For the same sequence, the Stability (Plasma [46]) was “Stable”, the Stability [47] was 14.4% and the Stability [48] was 11.6%. The Stability [49] was 16.8% and the Stability [50] was 21.4%.
